The source of these data is US20070122344A1, “Intraoperative determination of nerve location” (University of Rochester Medical Center Office of Technology …, priority 2005, published 2007).

“Also recorded” adds a separate entry of the source. Read-outs that look alike come from different tables or passages of the source.

One data set concerns mammals. Particulars: cited from earlier work.
Another data set concerns cavernous nerves. The data set can be described thus: NIRF intraoperative imaging of rat cavernous nerves after injection of ICG into the crura. In kind it is in vivo. Conditions: rats.
For data set [1] the following is noted: cited from earlier work.
[2] abbreviates: mammals, several months after the treatment.

Excerpt for cavernous nerves: The area was examined for retrograde axonal transport at different time points, using a NIRF intraoperative imaging system (SPY®, Novadaq Technologies Inc., Mississauga, Ontario, Canada) that illuminates tissues with a 805 nm laser and captures images with a camera sensitive to infrared fluorescence. Near infrared microscopy and conventional histology were used to confirm the macroscopically identified fluorescent structures. […] (These were specific time points at which examinations were made. […] The fluorescent nerves were then excised.

As to `N=C(N)c1ccc(/C=C/c2ccc(C(=N)N)cc2O)cc1` [Fluorogold], the results for the neuronal toxicity result in the data set with mammals (setting [2]) and in the data set on mammals (used in mammals) were “without evidence of neuronal toxicity” and “low evidence of neuronal toxicity”, respectively.

In the case of `CC1(C)C(/C=C/C=C/C=C/C=C2\N(CCCCS(=O)(=O)O)c3ccc4ccccc4c3C2(C)C)=[N+](CCCCS(=O)(=O)[O-])c2ccc3ccccc3c21` [ICG, indocyanine green], in the data set with mammals (setting [2]), the neuronal toxicity result is “without evidence of neuronal toxicity”. The neuronal toxicity result in the data set with mammals (used in mammals) was “low evidence of neuronal toxicity”. Also, in the data set on cavernous nerves (ICG injected into both crura, examined at 6, 8, 12, 18, 24 and 36 hours post injection, NIRF imaging (SPY)), the “identification of the cavernous nerves by fluorescence” value was “permitted identification of the nerves; also recorded: nerves were identified in situ”. Further, the “fluorescence of the cavernous nerves at longer post-injection periods” value with cavernous nerves (ICG injected into crura, e.g. 30 days post-injection) is “not detectable”. Further, the distribution entry in data set [1] (after intravenous injection, with normal vascular permeability) is “remains intravascular”. In addition, in data set [1] (after intravenous injection), the excretion result is “excreted exclusively by the liver” and the “metabolism in the body” value is “not metabolized”. Also, in data set [1] (in vivo), the enterohepatic recirculation result is recorded as “does not undergo enterohepatic recirculation” and the “reabsorption from the intestine” value is “not reabsorbed”.

In the case of Fast Blue, the neuronal toxicity result in the data set on mammals (setting [2]) is “without evidence of neuronal toxicity”; with mammals (used in mammals) it was “low evidence of neuronal toxicity”.
